Activity calls are given as the source filed them. No cut-off for these calls is given here.
What was measured:
[1] = target: Histone deacetylase 1 (Homo sapiens) (UniProt Q13547); experiment: Inhibition of HDAC1 (unknown origin) expressed in Escherichia coli BL21 (DE3) using GRKacFGC as substrate at 10 uM after 60 mins by SAMDI mass spectrometric analysis relative to control
[2] = target: T1, Protein deacetylase HDAC6 (Homo sapiens) (UniProt Q9UBN7); experiment: Inhibition of HDAC6 (unknown origin) expressed in Escherichia coli BL21 (DE3) using GRKacYGC as substrate at 10 uM after 60 mins by SAMDI mass spectrometric analysis relative to control
T1 sequence (whole entry): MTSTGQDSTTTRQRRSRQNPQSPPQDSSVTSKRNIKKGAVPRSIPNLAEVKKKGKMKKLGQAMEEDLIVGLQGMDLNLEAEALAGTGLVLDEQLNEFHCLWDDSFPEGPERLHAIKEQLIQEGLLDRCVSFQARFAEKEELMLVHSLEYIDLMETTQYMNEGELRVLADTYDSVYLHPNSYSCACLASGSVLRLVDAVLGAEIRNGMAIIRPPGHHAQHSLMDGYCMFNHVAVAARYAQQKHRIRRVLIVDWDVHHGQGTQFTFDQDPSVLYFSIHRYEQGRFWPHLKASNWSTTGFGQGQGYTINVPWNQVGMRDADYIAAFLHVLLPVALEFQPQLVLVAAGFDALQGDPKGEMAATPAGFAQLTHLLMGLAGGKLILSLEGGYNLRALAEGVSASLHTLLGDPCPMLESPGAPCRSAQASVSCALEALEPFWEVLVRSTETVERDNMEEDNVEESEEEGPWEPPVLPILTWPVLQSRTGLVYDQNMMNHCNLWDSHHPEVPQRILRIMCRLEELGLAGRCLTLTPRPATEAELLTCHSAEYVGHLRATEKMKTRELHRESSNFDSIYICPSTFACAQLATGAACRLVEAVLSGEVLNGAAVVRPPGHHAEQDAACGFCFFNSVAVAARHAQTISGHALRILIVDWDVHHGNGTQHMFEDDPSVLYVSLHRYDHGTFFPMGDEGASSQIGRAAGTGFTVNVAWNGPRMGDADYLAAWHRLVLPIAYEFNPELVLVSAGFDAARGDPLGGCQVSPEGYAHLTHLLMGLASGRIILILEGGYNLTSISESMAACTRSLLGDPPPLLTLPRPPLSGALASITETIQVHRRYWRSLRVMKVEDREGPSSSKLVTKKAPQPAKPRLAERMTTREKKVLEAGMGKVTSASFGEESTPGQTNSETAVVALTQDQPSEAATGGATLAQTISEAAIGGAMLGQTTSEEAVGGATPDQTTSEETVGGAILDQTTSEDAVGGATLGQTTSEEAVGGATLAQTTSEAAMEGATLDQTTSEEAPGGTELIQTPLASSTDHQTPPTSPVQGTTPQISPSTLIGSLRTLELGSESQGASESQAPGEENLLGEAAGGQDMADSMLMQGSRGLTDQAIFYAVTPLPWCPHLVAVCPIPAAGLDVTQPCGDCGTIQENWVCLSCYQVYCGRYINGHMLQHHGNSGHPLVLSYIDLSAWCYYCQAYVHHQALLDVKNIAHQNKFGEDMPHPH

Histone deacetylase 8 = target: T2, Histone deacetylase 8 (Homo sapiens, UniProt Q9BY41); experiment: Inhibition of HDAC8 catalytic domain (unknown origin) expressed in Escherichia coli BL21 (DE3) using GRKacFGC as substrate after 60 mins by SAMDI mass spectrometric analysis
T2 sequence (Q9BY41 whole entry): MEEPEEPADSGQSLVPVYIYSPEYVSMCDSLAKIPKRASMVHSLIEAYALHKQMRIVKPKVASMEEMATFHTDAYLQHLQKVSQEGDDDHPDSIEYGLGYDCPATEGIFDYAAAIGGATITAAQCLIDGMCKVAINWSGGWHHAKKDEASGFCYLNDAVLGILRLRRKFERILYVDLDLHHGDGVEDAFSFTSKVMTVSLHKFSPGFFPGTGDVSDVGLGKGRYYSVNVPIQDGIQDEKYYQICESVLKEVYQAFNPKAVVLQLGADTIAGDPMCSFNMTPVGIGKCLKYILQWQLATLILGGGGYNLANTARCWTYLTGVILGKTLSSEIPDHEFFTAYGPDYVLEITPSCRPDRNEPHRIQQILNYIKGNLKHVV

[3] = target: T3, Histone deacetylase 8 (Homo sapiens) (UniProt Q9BY41); experiment: Inhibition of HDAC8 catalytic domain (unknown origin) expressed in Escherichia coli BL21 (DE3) using GRKacFGC as substrate at 10 nM to 1 mM after 60 mins by SAMDI mass spectrometric analysis
T3 sequence (whole entry): T2 sequence (Q9BY41 whole entry)

[4] = target: Histone deacetylase 1 (Homo sapiens) (UniProt Q13547); experiment: Inhibition of HDAC1 (unknown origin) expressed in Escherichia coli BL21 (DE3) using GRKacFGC as substrate at 10 nM to 1 mM after 60 mins by SAMDI mass spectrometric analysis
[5] = target: T1, Protein deacetylase HDAC6 (Homo sapiens); experiment: Inhibition of HDAC6 (unknown origin) expressed in Escherichia coli BL21 (DE3) using GRKacYGC as substrate at 10 nM to 1 mM after 60 mins by SAMDI mass spectrometric analysis
[6] = target: T4, Protein deacetylase HDAC6 (Homo sapiens, UniProt Q9UBN7); experiment: Inhibition of HDAC6 (unknown origin) expressed in Escherichia coli BL21 (DE3) using GRKacYGC as substrate after 60 mins by SAMDI mass spectrometric analysis
T4 sequence (Q9UBN7 whole entry): T1 sequence (whole entry)

Jurkat = experiment: cells; type: functional, cell-based; conditions: Homo sapiens, 72 h
Description: Cytotoxicity against human Jurkat cells assessed as growth inhibition after 72 hrs by MTS assay

[7] = Aqueous solubility of the compound […] at room temperature by UV-vis spectrophotometric analysis; type: physicochemical
DU-145 = experiment: cells; type: functional, cell-based; conditions: Homo sapiens, DU-145, 72 h
Description: Cytotoxicity against androgen-independent human DU145 cells assessed as growth inhibition after 72 hrs by MTS assay

LNCaP = experiment: cells; conditions: Homo sapiens, 72 h
Description: Cytotoxicity against androgen-dependent human LNCAP cells assessed as growth inhibition after 72 hrs by MTS assay

Vero = experiment: Cytotoxicity against African green monkey Vero cells assessed as growth inhibition after 72 hrs by MTS assay; type: cell-based; conditions: Chlorocebus sabaeus
[8] = Cytotoxicity against human Jurkat gamma1 cells assessed as growth inhibition after 72 hrs by MTS assay; type: functional, cell-based

Histone deacetylase 1 (Homo sapiens), sequence (Q13547 whole entry): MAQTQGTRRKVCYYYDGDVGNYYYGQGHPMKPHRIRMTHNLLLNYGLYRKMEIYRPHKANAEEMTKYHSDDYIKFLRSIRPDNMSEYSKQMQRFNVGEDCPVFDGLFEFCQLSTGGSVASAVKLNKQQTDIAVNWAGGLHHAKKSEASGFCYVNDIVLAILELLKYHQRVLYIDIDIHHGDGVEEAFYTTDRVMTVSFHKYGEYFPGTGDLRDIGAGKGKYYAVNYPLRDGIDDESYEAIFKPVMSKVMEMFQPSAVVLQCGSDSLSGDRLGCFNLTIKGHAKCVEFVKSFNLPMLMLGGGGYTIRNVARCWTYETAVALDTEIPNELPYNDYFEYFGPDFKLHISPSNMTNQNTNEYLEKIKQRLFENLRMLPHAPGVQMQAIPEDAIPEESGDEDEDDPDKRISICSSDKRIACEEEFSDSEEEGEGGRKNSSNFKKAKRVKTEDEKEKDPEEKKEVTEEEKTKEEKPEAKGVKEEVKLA

Row | inhibition [1] | inhibition [3] | inhibition [4] | inhibition [5] | SMILES | other results
1 | < 20% |  |  |  | N#Cc1ccc(-c2cn(CCCCCn3cccc(O)c3=S)nn2)cc1 | 
2 | < 20% |  |  |  | Oc1cccn(CCCCCCn2cc(-c3ccccc3)nn2)c1=S | inhibition [2]: 22%; IC50 (Histone deacetylase 8): 6.75 µM
3 |  | inactive | inactive | inactive | O=c1c(O)cccn1CCCCCCn1cc(-c2ccccc2)nn1 | 
4 | < 20% |  |  |  | Cc1cccc(-c2cn(CCCCCn3cccc(O)c3=S)nn2)c1 | IC50 [6]: 1.1 µM; IC50 (Histone deacetylase 8): 1.66 µM
5 |  | inactive | inactive | inactive | N#Cc1ccc(-c2cn(CCCCCn3cccc(O)c3=O)nn2)cc1 | 
6 |  | inactive | inactive | inactive | O=c1c(O)cccn1CCCCCCCn1cc(-c2ccccc2)nn1 | 
7 |  | inactive | inactive | inactive | CN(C)c1ccc(-c2cn(CCCCCn3cccc(O)c3=O)nn2)cc1 | 
8 |  | inactive | inactive | inactive | O=c1c(O)cccn1CCCCCn1cc(-c2ccccc2)nn1 | 
9 | < 20% |  |  |  | Oc1cccn(CCn2cc(-c3ccccc3)nn2)c1=S | inhibition [2]: 14%
10 |  | inactive | inactive | inactive | Cc1ccccc1-c1cn(CCCCCn2cccc(O)c2=O)nn1 | 
11 |  | inactive | inactive | inactive | Cc1ccc(-c2cn(CCCCCn3cccc(O)c3=O)nn2)cc1 | 
12 | < 20% |  |  |  | N#Cc1ccc(-c2cn(CCCCCn3cccc(O)c3=S)nn2)cc1C(F)(F)F | 
13 | < 20% |  |  |  | Oc1cccn(CCCCn2cc(-c3ccccc3)nn2)c1=S | IC50 [6]: 1.08 µM; IC50 (Histone deacetylase 8): 3.3 µM
14 |  | inactive | inactive | inactive | N#Cc1cccc(-c2cn(CCCCCn3cccc(O)c3=O)nn2)c1 | 
15 |  | inactive | inactive | inactive | O=c1c(O)cccn1CCn1cc(-c2ccccc2)nn1 | 
16 | < 20% |  |  |  | Oc1cccn(Cc2cn(-c3ccccc3)nn2)c1=S | inhibition [2]: 41%
17 |  | inactive | inactive | inactive | N#Cc1ccc(-c2cn(CCCCCn3cccc(O)c3=O)nn2)cc1C(F)(F)F | 
18 | < 20% |  |  |  | Oc1cccn(CCCn2cc(-c3ccccc3)nn2)c1=S | IC50 [6]: 3.63 µM
19 |  | inactive | inactive | inactive | O=c1c(O)cccn1CCCCn1cc(-c2ccccc2)nn1 | 
20 |  | inactive | inactive | inactive | Cc1cccc(-c2cn(CCCCCn3cccc(O)c3=O)nn2)c1 | 
21 |  | inactive | inactive | inactive | O=c1c(O)cccn1CCCn1cc(-c2ccccc2)nn1 | 
22 | < 20% |  |  |  | Cc1ccccc1-c1cn(CCCCCn2cccc(O)c2=S)nn1 | IC50 [6]: 0.637 µM; IC50 (Jurkat): 5.18 µM; solubility [7]: soluble; IC50 (Histone deacetylase 8): 2.4 µM; IC50 (DU-145): 11.1 µM; IC50 (LNCaP): 4.95 µM
23 | < 20% |  |  |  | CN(C)c1ccc(-c2cn(CCCCCn3cccc(O)c3=S)nn2)cc1 | 
24 |  |  |  |  | CN1CCc2c(c3ccccc3n2Cc2ccc(C(=O)NO)cc2)C1 [TUBASTATIN A] | IC50 (Jurkat): 3.38 µM; IC50 (LNCaP): 10.9 µM; IC50 (Vero): > 20 µM
25 | < 20% |  |  |  | Cc1ccc(-c2cn(CCCCCn3cccc(O)c3=S)nn2)cc1 | IC50 [6]: 0.807 µM; IC50 (Histone deacetylase 8): 2.53 µM
26 | < 20% |  |  |  | Oc1cccn(CCCCCCCn2cc(-c3ccccc3)nn2)c1=S | IC50 [6]: 0.955 µM; IC50 (Jurkat): 9.04 µM; solubility [7]: soluble; IC50 (Histone deacetylase 8): 1.38 µM; IC50 (DU-145): 17.7 µM; IC50 (LNCaP): 11 µM; IC50 [8]: > 20 µM

— ChEMBL document CHEMBL3108745, “Synthesis and structure-activity relationship of 3-hydroxypyridine-2-thione-based histone deacetylase inhibitors” (J Med Chem, 2013)
